Reference: patent EP4759805A1, “NLRP3 INFLAMMASOME INHIBITOR AND USE THEREOF” (NEUROCRINE BIOSCIENCES, INC., priority 2023, dated 2025)

Target: T1, NLRP3 inflammasome (Homo sapiens, UniProt Q96P20)
T1 construct: endogenous in cells; host or cells: THP-1 cells (PMA-differentiated, LPS-primed, nigericin-stimulated)
Experiment: Cell assay of inhibitory activity against NLRP3 inflammasome in THP-1 cells (LPS/nigericin stimulation, caspase-1 glo readout)
Format: cell-based
Settings: PMA-differentiated THP-1 cells; LPS 500 ng/ml 3 h, compound 1 h, nigericin 10 µg/ml 30 min; active caspase-1 in supernatant
Method: Experimental Example 1: Cell assay of inhibitory activity of the compounds of the present disclosure against NLRP3 inflammasome
Test compounds: the compounds of the present disclosure prepared in accordance with the methods described in the Examples
THP-1 was an immortalized human macrophage cell line.
Test instrument: Microplate reader (manufactured by PE)
• 1. THP-1 cells were cultured in 1640 complete medium (500 ml 1640+56 ml FBS+560 µl 1000× P/S+2 µl mercaptoethanol), and used within 3 to 20 passages. • 2. Coating of culture plates: 100 µl of polylysine solution was added into a 96-well cell culture plate and incubated at 37°C for 30min. The solution was discarded, and the plate was washed twice with PBS for later use. • 3. Induction of differentiation of THP-1: THP-1 cells were resuspended in an appropriate amount of complete medium containing 10 ng/ml PMA to achieve a cell density of 5×10^5 cells /ml in the suspension. The cell suspension was added into a 96-well plate with 100 µl of cell suspension per well, and the 96-well plate was cultured overnight for 16 hours in a 37°C CO2 cell incubator. • 4. Stimulation of THP-1: • a. Serum-free THP-1 culture medium containing LPS was added to achieve a final concentration of 500 ng/ml, and the resultant was cultured in a 37°C CO2 cell incubator for 3h; • b. The compounds to be tested were prepared into stock solutions at gradient concentrations with DMSO. The resulting solutions were added to the cells, evenly mixed, and finally diluted at 1:1000. The 96-well plate was cultured in a 37°C CO2 cell incubator for 1h. • c. Nigericin was added to each well to achieve a final concentration of 10 µg/ml, and the resultant was cultured in a 37°C CO2 cell incubator for 30 min. • d. The resulting culture medium in each well was transferred to a new culture plate, which was then centrifuged at 3000 rpm for 5min. Afterwards, the supernatant was transferred to a new 96-well plate. • e. The collected supernatant samples of the cell culture medium were determined by using a commercial caspase-1 glo kit, and the content of human active caspase-1 was determined according to the manufacturer's instructions.

T1 sequence (Q96P20 whole entry): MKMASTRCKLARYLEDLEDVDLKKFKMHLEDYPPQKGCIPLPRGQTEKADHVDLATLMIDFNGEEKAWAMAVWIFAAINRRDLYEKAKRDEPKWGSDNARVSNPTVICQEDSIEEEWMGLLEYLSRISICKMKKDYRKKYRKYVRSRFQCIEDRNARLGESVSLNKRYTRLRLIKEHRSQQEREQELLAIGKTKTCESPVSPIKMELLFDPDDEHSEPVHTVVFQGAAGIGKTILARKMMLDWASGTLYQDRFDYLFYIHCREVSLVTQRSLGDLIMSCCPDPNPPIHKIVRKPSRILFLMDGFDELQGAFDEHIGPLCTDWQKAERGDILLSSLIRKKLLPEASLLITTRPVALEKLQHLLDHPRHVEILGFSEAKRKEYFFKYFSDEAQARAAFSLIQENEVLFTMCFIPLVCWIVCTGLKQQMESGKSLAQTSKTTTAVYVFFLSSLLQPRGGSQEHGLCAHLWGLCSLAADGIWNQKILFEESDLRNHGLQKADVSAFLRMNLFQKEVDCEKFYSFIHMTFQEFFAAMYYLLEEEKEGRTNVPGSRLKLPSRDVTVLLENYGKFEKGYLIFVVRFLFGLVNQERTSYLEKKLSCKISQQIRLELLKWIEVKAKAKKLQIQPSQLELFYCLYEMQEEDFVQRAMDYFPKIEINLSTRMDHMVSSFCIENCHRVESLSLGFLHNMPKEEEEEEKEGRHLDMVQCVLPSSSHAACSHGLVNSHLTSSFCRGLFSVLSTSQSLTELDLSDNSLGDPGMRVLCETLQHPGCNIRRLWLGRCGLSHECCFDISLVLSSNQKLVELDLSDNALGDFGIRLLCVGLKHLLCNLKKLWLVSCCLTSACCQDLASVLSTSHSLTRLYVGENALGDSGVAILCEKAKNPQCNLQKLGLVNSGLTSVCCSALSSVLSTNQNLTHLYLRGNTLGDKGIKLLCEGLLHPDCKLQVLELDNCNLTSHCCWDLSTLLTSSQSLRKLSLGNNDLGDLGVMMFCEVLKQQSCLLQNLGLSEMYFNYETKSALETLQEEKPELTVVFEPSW

CNCC(=O)Nc1cc(C2CC2)c(-c2ccc(Cl)cc2O)nn1 [Compound 67, N-(6-(4-chloro-2-hydroxyphenyl)-5-cyclopropylpyridazin-3-yl)-2-(methylamino)acetamide]
IC50: 5.6 nM
